Source: PMC4116524, “A virtual screen identified C96 as a novel inhibitor of phosphatidylinositol 3-kinase that displays potent preclinical activity against multiple myeloma in vitro and in vivo” (Oncotarget, 2014)

Columns and labels:
[1] = test system: MM cell; parameters: method as in PMID 24013662; details: cited from earlier work
[2] = test system: PI3Kγ and δ; parameters: method as in PMID 20505158; details: read-out: IC50s in inhibiting PI3K activity; cited from earlier work
[3] = test system: MM cell; parameters: method as in PMID 20505158; details: cited from earlier work
[4] = test system: AKT phosphorylation in LP1 and JJN3 cells; assay: IGF-1-stimulated AKT phosphorylation, immunoblotting (Figure 3A); format: cell-based; details: 100 μM, 2 hrs, IGF-1 15 min
Experimental: To elucidate this specificity, we first evaluated its effects on IGF-1R because IGF-1R as a receptor tyrosine kinase activates PI3K in the presence of IGF-1. To exclude the potential effects of C96 on IGF-1 signaling, LP1 and JJN3 cells were starved overnight followed by C96 or S14161 treatment for 2 hrs, and IGF-1 stimulation for 15 min. As expected, IGF-1 triggered AKT phosphorylation but it was suppressed by both C96 and the proven PI3K inhibitor S14161 without affecting total AKT expression (Figure 3A). […] Next, we evaluated other kinases including non-receptor kinase c-Src and a PI3K parallel kinase ERK which transduces external cellular signals. Both LP1 and JJN3 cells were treated with C96 at increasing concentrations that inhibited AKT and mTOR activation (Figure 2C).
Figure 3 C96 inhibits AKT but not IGF-1R, ERK or c-Src kinase activation (A) LP1 and JJN3 cells were starved overnight, then treated with 100 (μM of C96 or S14161 for 2 hrs, followed by IGF-1 (100 ng/mL) for 15 min. After incubation, cells were harvested and the expression of p-AKT, p-IGF-1R, total AKT (T-AKT), and IGF-1R proteins were detected by immunoblotting. (B) LP1 and JJN3 were treated with C96 at indicated concentrations for 24 hrs followed by immunoblotting assay for the expression of p-Src, c-Src, p-ERK, and ERK. GAPDH was used as a loading control. […]

COc1c(OCCCN2CCOCC2)ccc2c1N=C(NC(=O)c1cnc(N)nc1)N1CCN=C21 [BAY80-6946]
concentration required to inhibit MM cell proliferation [1]: more than 1000 nM

CC[C@H](Nc1ncnc2[nH]cnc12)c1nc2cccc(F)c2c(=O)n1-c1ccccc1 [CAL-101]
IC50 [2]: ~2.5 nM | concentration needed to induce MM cell death [3]: more than 10 μM

CCOc1cccc2c1OC(c1ccc(F)cc1)C([N+](=O)[O-])=C2 (stereo not shown) [S14161, reference compound]
AKT phosphorylation triggered by IGF-1 [4]: suppressed
